Experimental findings from PubChem BioAssay AID1259411 (Chemical Carcinogenesis Research Information System (CCRIS), 2018) are described below.

Calls of active or inactive are those of the source. The rule behind the calls is not given here.

The data set has as its system rodent carcinogenicity bioassays, tumor incidence. Briefly: CCRIS carcinogenicity studies. Summed up: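 NCI-built, expert-reviewed records of carcinogenicity and related test outcomes (mutagenicity, tumor promotion/inhibition) compiled from published and report sources, historical span 1985-2011, not updated.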

In the case of `C=O`, the carcinogen call is, setting by setting: (Species: Hamster, Strain/Sex: Syrian golden/Male (132/Control group; 88/Experimental group), Route: Inhalation, Dose: 10 ppm 5 hr/day, 5 d/wk for life, study duration was lifetime of the animal) “inactive; negative”; (Species: Mouse, Strain/Sex: B6C3F1/Female (120/Group with sacrifices at 6, 12 and 24 mo), Route: Inhalation, Dose: 0, 2, 6, 15 ppm 6 hr/d, 5 d/wk for 24 mo, study duration 24 mo, Dose: 0, 2, 6, 15 ppm 6 hr/d, 5 d/wk for 24 mo, study duration 24 mo) “inactive; negative. dose-related non-neoplastic nasal lesions were observed”; (Species: Mouse, Strain/Sex: B6C3F1/Male (120/Group with sacrifices at 6, 12 and 24 mo), Route: Inhalation, Dose: 0, 2, 6, 15 ppm 6 hr/d, 5 d/wk for 24 mo, study duration 24 mo, Dose: 0, 2, 6, 15 ppm 6 hr/d, 5 d/wk for 24 mo, study duration 24 mo, Tumor Site: Type of Lesion: Nasal passages) “active; positive. dose-related non-neoplastic nasal lesions also observed”; (Species: RAT, Strain/Sex: F344/FEMALE, Route: INHALATION, Dose: 0, 2, 6, 15 PPM, Dose: 0, 2, 6, 15 PPM, Tumor Site: Type of Lesion: NASAL TURBINATES: SQUAMOUS CELL CARCINOMA) “active; positive”; (Species: RAT, Strain/Sex: F344/MALE, Route: INHALATION, Dose: 0, 0.3, 2, 15 PPM 6 HR/D 5 D/WK FOR 28 MO (STUDY DURATION: 28 MO), Dose: 0, 0.3, 2, 15 PPM 6 HR/D 5 D/WK FOR 28 MO (STUDY DURATION: 28 MO), Tumor Site: Type of Lesion: NASAL CAVITY: SQUAMOUS CELL CARCINOMA, SQUAMOUS CELL PAPILLOMA) “active; positive”; (Species: RAT, Strain/Sex: F344/MALE, Route: INHALATION, Dose: 0, 2, 6, 15 PPM, Dose: 0, 2, 6, 15 PPM, Tumor Site: Type of Lesion: NASAL TURBINATES: SQUAMOUS CELL CARCINOMA) “active; positive”. In addition, the carcinogen call is, setting by setting: (Species: RAT, Strain/Sex: SPRAGUE-DAWLEY/FEMALE, Route: ORAL, Dose: 0, 10, 50, 100, 500, 1000, 1500 PPM IN DRINKING WATER FOR 104 WK (STUDY DURATION: LIFETIME), Dose: 0, 10, 50, 100, 500, 1000, 1500 PPM IN DRINKING WATER FOR 104 WK (STUDY DURATION: LIFETIME), Tumor Site: Type of Lesion: LYMPHATIC SYSTEM: LEUKEMIA, GASTROINTESTINAL SYSTEM: TUMOR) “active; positive”; (Species: RAT, Strain/Sex: SPRAGUE-DAWLEY/MALE, Route: INHALATION, Dose: 14.2 PPM 6 HR/DAY, 5 DAY/WK, Tumor Site: Type of Lesion: NASAL CAVITY: SQUAMOUS CELL CARCINOMA) “active; positive”; (Species: RAT, Strain/Sex: SPRAGUE-DAWLEY/MALE, Route: ORAL, Dose: 0, 10, 50, 100, 500, 1000, 1500 PPM IN DRINKING WATER FOR 104 WK (STUDY DURATION: LIFETIME), Dose: 0, 10, 50, 100, 500, 1000, 1500 PPM IN DRINKING WATER FOR 104 WK (STUDY DURATION: LIFETIME), Tumor Site: Type of Lesion: LYMPHATIC SYSTEM: LEUKEMIA, GASTROINTESTINAL SYSTEM: TUMOR) “active; positive”; (Species: RAT, Strain/Sex: WISTAR/FEMALE, Route: ORAL, Dose: 0, 1.8, 21 MG/KG IN DRINKING WATER FOR UP TO 24 MO (STUDY DURATION: 105 WK), Dose: 0, 1.8, 21 MG/KG IN DRINKING WATER FOR UP TO 24 MO (STUDY DURATION: 105 WK)) “inactive; negative”; (Species: RAT, Strain/Sex: WISTAR/MALE, Route: INHALATION, Dose: 0, 0.1, 1.0, 10 PPM 6HR/D, 5D/WK FOR 3 MO (STUDY DURATION: 29 MO), Dose: 0, 0.1, 1.0, 10 PPM 6HR/D, 5D/WK FOR 3 MO (STUDY DURATION: 29 MO)) “inactive; negative”; (Species: RAT, Strain/Sex: WISTAR/MALE, Route: INHALATION, Dose: 0, 0.1, 1.0, 10 PPM 6HR/D, 5D/WK FOR 28 MO (STUDY DURATION: 29 MO), Dose: 0, 0.1, 1.0, 10 PPM 6HR/D, 5D/WK FOR 28 MO (STUDY DURATION: 29 MO)) “inactive; negative”. For the setting “Species: RAT, Strain/Sex: WISTAR/MALE, Route: ORAL, Dose: 0, 1.2, 15 MG/KG IN DRINKING WATER FOR UP TO 24 MO (STUDY DURATION: 105 WK), Dose: 0, 1.2, 15 MG/KG IN DRINKING WATER FOR UP TO 24 MO (STUDY DURATION: 105 WK)”, the carcinogen call is “inactive; negative”.
Take `CC(C)CCC[C@@H](C)[C@H]1CC[C@H]2[C@@H]3CC=C4C[C@@H](OC(=O)Cc5ccc(N(CCCl)CCCl)cc5)CC[C@]4(C)[C@H]3CC[C@]12C`: the carcinogen call reads like this: (Species: MOUSE, Strain/Sex: B6C3F1/FEMALE, Route: GAVAGE, Dose: 0, 7, 15, 30 MG/KG 3/WK FOR 52-88 WK (STUDY DURATION: 62-104 WK), Dose: 0, 7, 15, 30 MG/KG 3/WK FOR 52-88 WK (STUDY DURATION: 62-104 WK), Tumor Site: Type of Lesion: LUNG: ALVEOLAR/BRONCHIOLAR ADENOMA, CARCINOMA, MYOCARDIUM: SARCOMA, OVARIES: TUBULAR ADENOMA, HEMATOPOIETIC SYSTEM (LEUK, Tumor Site: Type of Lesion: LUNG: ALVEOLAR/BRONCHIOLAR ADENOMA, CARCINOMA, MYOCARDIUM: SARCOMA, OVARIES: TUBULAR ADENOMA, HEMATOPOIETIC SYSTEM (LEUK) “active; positive”; (Species: MOUSE, Strain/Sex: B6C3F1/MALE, Route: GAVAGE, Dose: 0, 7, 15, 30 MG/KG 3/WK FOR 52-102 WK (STUDY DURATION: 74-104 WK), Dose: 0, 7, 15, 30 MG/KG 3/WK FOR 52-102 WK (STUDY DURATION: 74-104 WK), Tumor Site: Type of Lesion: LUNG: ALVEOLAR/BRONCHIOLAR ADENOMA, CARCINOMA, HEMATOPOIETIC SYSTEM (LEUKEMIA), LYMPHATIC SYSTEM: LYMPHOMA, MYOCARDIUM:, Tumor Site: Type of Lesion: LUNG: ALVEOLAR/BRONCHIOLAR ADENOMA, CARCINOMA, HEMATOPOIETIC SYSTEM (LEUKEMIA), LYMPHATIC SYSTEM: LYMPHOMA, MYOCARDIUM:) “active; positive”; (Species: RAT, Strain/Sex: SPRAGUE-DAWLEY/FEMALE, Route: GAVAGE, Dose: 0, 5, 10 MG/KG 3/WK FOR 52 WKS (STUDY DURATION: 84-85 WK), Dose: 0, 5, 10 MG/KG 3/WK FOR 52 WKS (STUDY DURATION: 84-85 WK), Tumor Site: Type of Lesion: MAMMARY GLAND: ADENOCARCINOMA, FIBROADENOMA) “active; positive”; (Species: RAT, Strain/Sex: SPRAGUE-DAWLEY/MALE, Route: GAVAGE, Dose: 0, 5, 10 MG/KG 3/WK FOR 52 WK (STUDY DURATION: 84-85 WK), Dose: 0, 5, 10 MG/KG 3/WK FOR 52 WK (STUDY DURATION: 84-85 WK)) “inactive; negative”.
For the molecule `O=Nc1cc2c3ccccc3ccc2c2ccccc12`, the carcinogen call is, setting by setting: (Species: MOUSE, Strain/Sex: SWISS/FEMALE, Route: INTRAPERITONEAL, Dose: 0, 100 NMOL (TOTAL DOSE) 1/7, 2/7 AND 4/7 ADMINISTERED ON DAYS 1, 8 AND 15 OF LIFE RESPECTIVELY (STUDY DURATION: 32 WK), Tumor Site: Type of Lesion: LUNG: TUMOR) “active; positive”; (Species: MOUSE, Strain/Sex: SWISS/MALE, Route: INTRAPERITONEAL, Dose: 0, 100 NMOL (TOTAL DOSE) 1/7, 2/7 AND 4/7 ADMINISTERED ON DAYS 1, 8 AND 15 OF LIFE RESPECTIVELY (STUDY DURATION: 32 WK), Tumor Site: Type of Lesion: LUNG: TUMOR, LIVER: TUMOR) “active; positive”.
`COc1c(O)c2c(c3cc(C(=O)N4CCc5c4c(O)c(OC)c4[nH]c(C(=O)N6C[C@H]7C[C@@]78C6=CC(=O)c6[nH]cc(C)c68)cc54)[nH]c13)CCN2C(N)=O`: the carcinogen call (Species: MOUSE, Strain/Sex: STRAIN-A/MALE,FEMALE, Route: INTRAVENOUS, Dose: 0, 2, 4, 8 UG/KG ONCE (STUDY DURATION: 24 WK), Dose: 0, 2, 4, 8 UG/KG ONCE (STUDY DURATION: 24 WK), Tumor Site: Type of Lesion: LUNG: ADENOMA) is “active; positive”.
`COc1nn(CSP(=S)(OC)OC)c(=O)s1`: the carcinogen call was “inactive; negative” (Species: DOG, Strain/Sex: BEAGLE/FEMALE, Route: ORAL, Dose: 0, 0.5, 2, 4, 40, 140 PPM IN DIET FOR 1 YR (STUDY DURATION: 1 YR), Dose: 0, 0.5, 2, 4, 40, 140 PPM IN DIET FOR 1 YR (STUDY DURATION: 1 YR)) and “inactive; negative” (Species: DOG, Strain/Sex: BEAGLE/MALE, Route: ORAL, Dose: 0, 0.5, 2, 4, 40, 140 PPM IN DIET FOR 1 YR (STUDY DURATION: 1 YR), Dose: 0, 0.5, 2, 4, 40, 140 PPM IN DIET FOR 1 YR (STUDY DURATION: 1 YR)).
